Assay results: article PMC12217528, “Structural basis of topoisomerase targeting by delafloxacin” (Nature Communications, 2025)

Tests used:
Type in all cases: biochemical
[1] = target: T1, DNA gyrase (GyrA subunit) (Streptococcus pneumoniae, UniProt P0A4M0+Q8DPM2); test: supercoiled pBR322 DNA cleavage assay (cleavage complex stabilisation)
T1 construct: full-length GyrA reconstituted with GyrB; with GyrB, with DNA

[2] = target: T2, topoisomerase IV (ParC subunit, ParE30-ParC55 fusion) (Streptococcus pneumoniae, UniProt P72525+Q59961); test: X-ray co-crystal structures at […] and […] Å; DNA cleavage assay with purified enzyme; design: ParE30-ParC55 fusion protein (ParE TOPRIM domain + ParC breakage-reunion domain), C-terminal His6; with ParE (ParE30 TOPRIM domain), with 18-mer V-site or E-site gate DNA
Target sequence in this assay (Q59961 404-647): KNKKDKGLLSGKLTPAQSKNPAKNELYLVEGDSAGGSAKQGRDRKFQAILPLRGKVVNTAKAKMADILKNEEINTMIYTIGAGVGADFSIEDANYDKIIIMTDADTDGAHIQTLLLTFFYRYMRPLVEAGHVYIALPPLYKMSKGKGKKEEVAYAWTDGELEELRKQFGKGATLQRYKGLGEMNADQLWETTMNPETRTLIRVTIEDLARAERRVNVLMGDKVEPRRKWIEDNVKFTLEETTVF
Target sequence in this assay (P72525 1-490): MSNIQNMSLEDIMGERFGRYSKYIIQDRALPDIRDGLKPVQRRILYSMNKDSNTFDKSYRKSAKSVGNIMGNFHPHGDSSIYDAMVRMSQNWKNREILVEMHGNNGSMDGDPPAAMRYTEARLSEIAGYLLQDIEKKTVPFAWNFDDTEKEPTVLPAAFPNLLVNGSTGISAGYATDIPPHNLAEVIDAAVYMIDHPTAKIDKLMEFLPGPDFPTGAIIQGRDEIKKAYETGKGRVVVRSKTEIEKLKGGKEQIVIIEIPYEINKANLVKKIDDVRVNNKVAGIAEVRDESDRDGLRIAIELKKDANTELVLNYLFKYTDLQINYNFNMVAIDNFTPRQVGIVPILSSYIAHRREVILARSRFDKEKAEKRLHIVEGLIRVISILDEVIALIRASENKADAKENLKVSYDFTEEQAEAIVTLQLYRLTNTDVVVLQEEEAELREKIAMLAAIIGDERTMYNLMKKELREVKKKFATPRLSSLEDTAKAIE

[3] = target: T2, topoisomerase IV (ParC subunit, ParE30-ParC55 fusion); test: supercoiled pBR322 DNA cleavage assay (cleavage complex stabilisation); design: ParE30-ParC55 fusion protein; with ParE (ParE30 TOPRIM domain), with DNA
Target sequence in this assay (P72525 1-490): as above
Target sequence in this assay (Q59961 404-647): as the sequence (Q59961 404-647) above

T1 sequence (Q8DPM2 whole entry): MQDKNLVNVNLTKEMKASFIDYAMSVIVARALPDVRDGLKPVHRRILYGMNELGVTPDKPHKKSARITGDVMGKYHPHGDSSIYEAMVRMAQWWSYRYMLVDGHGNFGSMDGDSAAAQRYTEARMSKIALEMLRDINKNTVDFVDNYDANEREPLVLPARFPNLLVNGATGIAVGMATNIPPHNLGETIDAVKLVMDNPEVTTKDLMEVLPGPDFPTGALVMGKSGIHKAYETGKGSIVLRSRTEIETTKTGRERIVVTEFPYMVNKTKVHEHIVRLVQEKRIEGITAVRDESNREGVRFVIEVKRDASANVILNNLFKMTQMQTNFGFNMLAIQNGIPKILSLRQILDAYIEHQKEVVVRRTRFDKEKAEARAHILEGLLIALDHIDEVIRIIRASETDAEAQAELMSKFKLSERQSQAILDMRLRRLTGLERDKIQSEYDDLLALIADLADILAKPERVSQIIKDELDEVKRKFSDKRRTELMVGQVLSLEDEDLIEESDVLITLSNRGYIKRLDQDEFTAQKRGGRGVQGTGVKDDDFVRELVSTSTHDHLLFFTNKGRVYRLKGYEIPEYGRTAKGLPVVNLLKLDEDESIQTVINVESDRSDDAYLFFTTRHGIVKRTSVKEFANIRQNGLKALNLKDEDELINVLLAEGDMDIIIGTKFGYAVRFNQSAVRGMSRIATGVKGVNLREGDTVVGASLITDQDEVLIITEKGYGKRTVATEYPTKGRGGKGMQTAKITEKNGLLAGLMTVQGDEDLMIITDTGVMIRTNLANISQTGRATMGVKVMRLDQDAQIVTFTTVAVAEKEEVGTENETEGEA
T1 sequence (P0A4M0 whole entry): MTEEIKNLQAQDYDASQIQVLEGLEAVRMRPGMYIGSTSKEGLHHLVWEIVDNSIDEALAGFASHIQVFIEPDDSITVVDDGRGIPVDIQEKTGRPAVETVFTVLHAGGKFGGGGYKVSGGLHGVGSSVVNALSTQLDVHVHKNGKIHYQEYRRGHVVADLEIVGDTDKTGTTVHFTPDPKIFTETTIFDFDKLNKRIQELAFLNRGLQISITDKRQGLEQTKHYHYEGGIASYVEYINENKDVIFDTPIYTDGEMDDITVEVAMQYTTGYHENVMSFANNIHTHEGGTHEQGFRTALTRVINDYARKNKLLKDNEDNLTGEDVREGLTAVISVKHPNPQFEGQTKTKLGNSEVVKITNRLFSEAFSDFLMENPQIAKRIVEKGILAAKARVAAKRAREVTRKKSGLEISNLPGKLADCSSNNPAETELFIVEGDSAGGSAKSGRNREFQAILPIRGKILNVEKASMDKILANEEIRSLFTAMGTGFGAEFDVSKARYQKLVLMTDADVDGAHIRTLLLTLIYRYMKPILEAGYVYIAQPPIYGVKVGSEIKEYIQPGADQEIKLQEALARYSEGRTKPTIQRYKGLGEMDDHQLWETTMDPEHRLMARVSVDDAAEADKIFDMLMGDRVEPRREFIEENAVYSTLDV

Row | SMILES | supercoiled pBR322 DNA cleavage assay (cleavage complex stabilisation) [1] | X-ray co-crystal structures at 2.0 and 2.4 Å; DNA cleavage assay with purified e [2] [µM] | supercoiled pBR322 DNA cleavage assay (cleavage complex stabilisation) [3] [µM]
1 | Nc1nc(-n2cc(C(=O)O)c(=O)c3cc(F)c(N4CC(O)C4)c(Cl)c32)c(F)cc1F [Delafloxacin] | 2.5–5.0 µM | 0.12 | –
2 | C[C@H]1COc2c(N3CCN(C)CC3)c(F)cc3c(=O)c(C(=O)O)cn1c23 [Levofloxacin] | – | – | 2.5
